Test results as given in patent EP0761667A1, “Heterocyclic substituted pseudopeptides” (BAYER AG, priority 1995, dated 1997).
Where two headings read alike, the source gives them in different places.

Legend:
HIV-1-Protease = molecular target: T1, HIV-1-Protease (Human immunodeficiency virus type 1 group M subtype B, UniProt P04585); experiment: HIV-specific protease enzyme test (purified HIV protease, synthetic peptide substrate, RP-HPLC analysis of cleavage products); format: biochemical
T1 construct: Gereinigte HIV-Protease wurde mit synthetischem Peptid
Source text: Es wurde überraschend gefunden, daß die Verbindungen der allgemeinen Formel (I) eine außerordentlich starke Wirkung gegen Retroviren besitzen. Dies wird mit einem HIV-spezifischen Protease-Enzymtest belegt.
Die Ergebnisse der unten aufgeführten Beispiele wurden nach dem in der folgenden Literaturangabe [vgl. Hansen, J., Billich, S., Schulze, T., Sukrow, S. and Mölling, K. (1988), EMBO Journal, Vol, 7, No. 6, pp. 1785 - 1791] beschriebenen HIV-Testsystem ermittelt: Gereinigte HIV-Protease wurde mit synthetischem Peptid, das eine Schnittstelle im Gag-Precursor-Protein imitiert und eine in vivo-Spaltstelle der HIV-Protease darstellt, inkubiert. Die entstandenen Spaltprodukte des synthetischen Peptids wurden über Reverse Phase High Performance Liquid Chromatography (RP-HPLC) analysiert. […]

HIV = HIV infection in cell culture (PBL), microscopic evaluation of syncytia formation; format: cell-based; settings: HIV-infected normal human blood lymphocytes (PBL's), day 3 to 6 after infection; for PBL IC95: suppression of virus-induced syncytia; for IC50: Human immunodeficiency virus 1, Lymphocyte, 72 h, 50% suppression of virus-induced syncytia
Description: HIV-Infektion in Zellkultur
Der HIV-Test wurde mit geringen Modifikationen nach der Methode von Pauwels et al. [vgl. Journal of Virological Methods 20, (1988), 309-321] durchgeführt.
Normale menschliche Blutlymphozyten (PBL's) wurden über Ficoll-Hypaque angereichert und im RPMI 1640, 20% fötales Kälberserum mit Phytohaemagglutinin (90 µg/ml) und Interleukin-2 (40 U/ml) stimuliert. Zur Infektion mit dem infektiösen HIV wurden PBL's pelletiert und das Zellpellet wurde anschließend in 1 ml HIV-Virusadsorptionslösung suspendiert und 1 Stunde bei 37°C inkubiert.
Die Virusadsorptionslösung wurde zentrifugiert und das infizierte Zellpellet in Wachstumsmedium aufgenommen, so daß 1 x 10^5 Zellen pro ml eingestellt waren. Die derart infizierten Zellen wurden zu 1 x 10^4 Zellen/Napf in die Näpfe von 96er Mikrotiterplatten pipettiert.
Die erste vertikale Reihe der Mikrotiterplatte enthielt nur Wachstumsmedium und Zellen, die nicht infiziert, aber ansonsten genauso wie oben beschrieben, behandelt worden waren (Zellkontrolle). Die zweite vertikale Reihe der Mikrotiterplatte erhielt nur HIV-infizierte Zellen (Viruskontrolle) in Wachstumsmedium. Die übrigen Näpfe enthielten die erfindungsgemäßen Verbindungen in unterschiedlichen Konzentrationen, ausgehend von den Näpfen der 3. vertikalen Reihe der Mikrotiterplatte, von der die Prüfsubstanzen in 2er Schritten 2^10fach verdünnt wurden.
Die Testansätze wurden so lange bei 37°C inkubiert, bis in der unbehandelten Viruskontrolle die für das HIV typische Syncytienbildung auftrat (zwischen Tag 3 und 6 nach Infektion), die dann mikroskopisch ausgewertet wurde. In der unbehandelten Viruskontrolle resultierten unter diesen Testbedingungen etwa 20 Syncytien, während die unbehandelte Zellkontrolle keine Syncytien aufwies.
Die IC50-Werte wurden als die Konzentration der behandelten und infizierten Zellen ermittelt, bei der 50% (ca. 10 Syncytien) der virusinduzierten Syncytien durch die Behandlung mit der erfindungsgemäßen Verbindung unterdrückt waren. […]

[1] = purified HIV protease, synthetic peptide imitating a Gag precursor cleavage site
[2] = purified HIV protease, synthetic peptide imitating a Gag precursor cleavage site, concentration giving 50% inhibition of protease activity, read-out: HIV-1-Protease-Inhibition IC50

| SMILES | IC50 (HIV-1-Protease) | HIV-1-Protease-Inhibition IC95 (HIV-1-Protease; [1]) | PBL IC95 (HIV) | IC50 (HIV) | IC50 (HIV-1-Protease; [2]) |
| --- | --- | --- | --- | --- | --- |
| NC(=O)C[C@H](NC(=O)OC1CCOC1)C(=O)N[C@@H](Cc1ccccc1)[C@H](O)CN1[C@H](C(F)(F)F)C[C@@H]2CCC[C@@H]21 (stereo partly drawn) [Beispiel 1, (2S,3S)-3-(Tetrahydrofuran-3-yl-oxycarbonyl-L-asparaginyl)amino-1-[(S,S,S)-3-trifluormethyl-2-azabicyclo[3.3.0]octan-2-yl}-2-hydroxy-4-phenylbutan] | 0.03 µM | 3,8 x 10^-7 Mol/l | 3,5 x 10^-6 Mol/l | 2.2 µM | – |
| NC(=O)C[C@H](NC(=O)O[C@H]1CCOC1)C(=O)N[C@@H](Cc1ccccc1)[C@H](O)CN1[C@H](C(F)(F)F)C[C@@H]2CCC[C@@H]21 [Beispiel 2] | – | 3,6 x 10^-9 Mol/l | 3,5 x 10^-6 Mol/l | 2 µM | 0.00027 µM |
| NC(=O)C[C@H](NC(=O)OC1CCS(=O)(=O)C1)C(=O)N[C@@H](Cc1ccccc1)[C@H](O)CN1[C@H](C(F)(F)F)C[C@@H]2CCC[C@@H]21 (stereo partly shown) [Beispiel 3] | – | – | 1,9 x 10^-6 Mol/l | 1.2 µM | 0.0095 µM |
| NC(=O)C[C@H](NC(=O)OC1C=CS(=O)(=O)C1)C(=O)N[C@@H](Cc1ccccc1)[C@H](O)CN1[C@H](C(F)(F)F)C[C@@H]2CCC[C@@H]21 (stereo partly shown) [Beispiel 4] | – | 3,9 x 10^-9 Mol/l | – | > 16 µM | 0.0021 µM |
| O=C(N[C@@H](Cc1ccccc1)[C@H](O)CN1[C@H](C(F)(F)F)C[C@@H]2CCC[C@@H]21)OC1CCOC1 (stereo partly drawn) [Beispiel 5, (2R,3S)-3-(Tetrahydrofuran-3-yl-oxycarbonyl)-amino-1-{(S,S,S)-3-trifluormethyl-2-azabicyclo[3.3.0]octan-2-yl}-2-hydroxy-4-phenylbutan] | 0.0041 µM | 4,7 x 10^-8 Mol/l | 2,2 x 10^-5 Mol/l | 14 µM | – |
| O=C(N[C@@H](Cc1ccccc1)[C@H](O)CN1[C@H](C(F)(F)F)C[C@@H]2CCC[C@@H]21)O[C@H]1CCOC1 [Beispiel 6] | – | 5,0 x 10^-8 Mol/l | 1,3 x 10^-5 Mol/l | 2.8 µM | 0.025 µM |
| O=C(N[C@@H](Cc1ccccc1)[C@H](O)CN1[C@H](C(F)(F)F)C[C@@H]2CCC[C@@H]21)OC1CCS(=O)(=O)C1 (stereo partly shown) [Beispiel 7] | – | – | – | 6.2 µM | 0.025 µM |
| O=C(N[C@@H](Cc1ccccc1)[C@H](O)CN1[C@H](C(F)(F)F)C[C@@H]2CCC[C@@H]21)OC1C=CS(=O)(=O)C1 (stereo partly shown) [Beispiel 8] | – | 4,1 x 10^-8 Mol/l | >2e-05 mol/L | 17 µM | 0.0032 µM |
